Source: publication PMC4747952, “Development of TASP0410457 (TASP457), a novel dihydroquinolinone derivative as a PET radioligand for central histamine H3 receptors” (EJNMMI Research, 2016)
Each block holds one compound with its values, some of them ahead of it.

Columns and labels:
K+ channel KATP = experiment: Off-target binding (Cerep); parameters: unit of the concentration uncertain
From the text: (§1) Off-target binding of compounds assessed using an in-house assay (M4) and a commercial battery (all others) (Cerep, Celle L'Evescault, France).
(§2) Concentration % Inhibition Concentration % Inhibition Concentration % Inhibition […]
(§3) *1α -amino-3-hydroxy-5-methyl-4-isoxazolepropionic acid receptor; *2N-methyl-D-aspartate receptor; *3Strychnine-insensitive glycine-binding module of NMDA receptor; *4Phencyclidine-binding site of NMDA receptor; *5ATP-sensitive potassium channel; *6Voltage-dependent potassium channel; *7small conductance calcium-activated potassium channel; *85-hydroxytryptamine 1A receptor

Glutamate NMDA = experiment: Off-target binding (Cerep); parameters: unit of the concentration uncertain
From the text: as §1, §2, §3

K+ channel SKCa = experiment: Off-target binding (Cerep); parameters: unit of the concentration uncertain
From the text: as §1, §2, §3

[1] = parameters: method as in earlier work; conditions: humans; at 30 min; ref Kimura et al., manuscript submitted to Eur J Nucl Med Mol Imaging; cited from earlier work
H3Rs = experiment: PET in anesthetized rhesus monkeys with arterial blood sampling; type: in vivo, rhesus monkey; conditions: for V T, Logan graphical analysis, Scan duration 60 min / V T, Logan graphical analysis, Scan duration 70 min / V T, Logan graphical analysis, Scan duration 80 min / V T, Logan graphical analysis, Scan duration 90 min / V T, One-tissue compartment model, Scan duration 90 min: Mean ± S.D., n = 3
Procedure: For a detailed pharmacokinetic PET study using [^11C]TASP0410457 with arterial blood sampling, three male rhesus monkeys weighing 5–7 kg were scanned with the SHR-7700 PET camera. The monkeys were initially anesthetized with an intramuscular injection of ketamine (10 mg/kg), intubated, and subsequently kept anesthetized with 1–2 % isoflurane. Electrocardiogram and blood oxygen saturation levels were monitored, and body temperature was maintained by a heating pad throughout the experiment. Arterial blood (1–2.5 mL) was collected from the saphenous artery at 10, 20, 30, 40, 50, 60, and 90 s and at 2, 3, 4, 5, 10, 15, 30, 60, and 90 min after the intravenous injection of [^11C]TASP0410457 (injected radioactivity, 159 ± 30 MBq; mass dose, 1.2 ± 0.3 μg; mean ± S.D., n = 3).
The arterial blood was centrifuged at 20,000×g for 3 min at 4 °C to separate the plasma. Radioactivity in total blood and plasma was determined using a 1480 WIZARD gamma counter (PerkinElmer), and was decay-corrected to the injection time. Arterial plasma collected at 1, 5, 15, 30, 60, and 90 min was used to analyze radioactive metabolites of [^11C]TASP0410457. Two hundred microliters of plasma was mixed with 200 μL of ice-cold acetonitrile, and the mixtures were centrifuged at 20,000×g for 3 min at 4 °C. Fifty to […] of the resultant supernatants were separated using HPLC (JASCO, Tokyo, Japan) on an Atlantis T3 column (4.6 × 50 mm, Waters, Milford, MA) with a mobile phase consisting of 10 mM of ammonium acetate/acetonitrile (68:32) at a flow rate of 1 mL/min. The fraction of unmetabolized [^11C]TASP0410457 was determined by measuring the areas of the HPLC peaks corresponding to [^11C]TASP0410457 and its radiometabolites.
Emission scan images were reconstructed using a 4.0-mm Colsher filter. ROIs were placed on the anterior cingulate cortex, striatum, thalamus, hippocampus, cerebellum, frontal cortex, temporal cortex, occipital cortex, and pons-medulla using PMOD software, with reference to an MRI template as described previously. Tissue TACs were generated as in the rat PET image analysis.
For PET study in anesthetized monkeys, metabolite-corrected plasma TACs were used as arterial input functions. The regional total volume of distribution (VT) was estimated by Logan’s graphical plot and one-tissue compartment model using PMOD software.

[2] = parameters: method as in K. Kawamura, personal communication, 2015; conditions: mice; 30 min after intravenous injection; pilot assays; ref K. Kawamura, personal communication, 2015; cited from earlier work
central H3Rs = experiment: Receptor occupancy assay, [^11C]TASP0410457-PET, Lassen's plot; type: in vivo, monkey; conditions: monkey
Procedure: Occupancy of central H3Rs by ciproxifan, a selective antagonist/inverse agonist, was quantified by [^11C]TASP0410457-PET scans of an anesthetized monkey with arterial blood sampling. […] Receptor occupancy of ciproxifan was determined using Lassen’s plot without any reference regions using the following equation: VT^Baseline−VT^Ciproxifan=OccVT^Baseline−VND where VT^Baseline and VT^Ciproxifan are the regional VT values at baseline and in the ciproxifan challenge, respectively, VND is the non-displaceable distribution volume, and Occ is the occupancy.

[3] = Concentration 10 (unit uncertain)
[4] = Concentration 1 (unit uncertain)
[5] = Anterior cingulate cortex, monkey brain

% Inhibition (K+ channel KATP; [3]): 22%
% Inhibition (Glutamate NMDA; [3]): -2%
% Inhibition (K+ channel SKCa; [3]): 7%
Compound: COc1ccc(N2C(=O)CCc3cc(OCCCN4CCC[C@H]4C)ccc32)cc1 [TASP0390136, 1-(4-methoxyphenyl)-6-{3-[(2R)-2-methylpyrrolidin-1-yl]propoxy}-3,4-dihydroquinolin-2(1H)-one]

% Inhibition (K+ channel KATP; [3]): 5%
% Inhibition (Glutamate NMDA; [3]): 11%
% Inhibition (K+ channel SKCa; [3]): -1%
Compound: COc1ccc(N2C(=O)CCc3cc(OC4CCN(C5CCC5)CC4)ccc32)cn1 [TASP0410457, 6-[(1-Cyclobutylpiperidin-4-yl)oxy]-1-(6-methoxypyridin-3-yl)-3,4-dihydroquinolin-2(1H)-one]

% Inhibition (K+ channel KATP; [4]): -4%
% Inhibition (Glutamate NMDA; [4]): -7%
% Inhibition (K+ channel SKCa; [4]): -2%
Compound: COc1ccc(N2C(=O)CCc3cc(OC4CCN(C5CCC5)CC4)ccc32)cc1 [TASP0434988, 6-[(1-cyclobutylpiperidin-4-yl)oxy]-1-(4-methoxyphenyl)-3,4-dihydroquinolin-2(1H)-one]

V T, Logan graphical analysis, Scan duration 60 min (H3Rs; [5]): 18.4 ± 2.7 mL/cm^3
V T, Logan graphical analysis, Scan duration 70 min (H3Rs; [5]): 18.6 ± 2.8 mL/cm^3
V T, Logan graphical analysis, Scan duration 80 min (H3Rs; [5]): 19.1 ± 3.2 mL/cm^3
V T, Logan graphical analysis, Scan duration 90 min (H3Rs; [5]): 19.5 ± 3.4 mL/cm^3
V T, One-tissue compartment model, Scan duration 90 min (H3Rs; [5]): 20.3 ± 3.3 mL/cm^3
V T, Logan graphical analysis, Scan duration 60 min (H3Rs; Cerebellum, monkey brain): 12.1 ± 1.2 mL/cm^3
V T, Logan graphical analysis, Scan duration 70 min (H3Rs; Cerebellum, monkey brain): 12.4 ± 1.3 mL/cm^3
V T, Logan graphical analysis, Scan duration 80 min (H3Rs; Cerebellum, monkey brain): 12.7 ± 1.5 mL/cm^3
V T, Logan graphical analysis, Scan duration 90 min (H3Rs; Cerebellum, monkey brain): 13.0 ± 1.7 mL/cm^3
V T, One-tissue compartment model, Scan duration 90 min (H3Rs; Cerebellum, monkey brain): 12.8 ± 1.7 mL/cm^3
V T, Logan graphical analysis, Scan duration 60 min (H3Rs; Frontal cortex, monkey brain): 12.3 ± 1.6 mL/cm^3
V T, Logan graphical analysis, Scan duration 70 min (H3Rs; Frontal cortex, monkey brain): 12.5 ± 1.7 mL/cm^3
V T, Logan graphical analysis, Scan duration 80 min (H3Rs; Frontal cortex, monkey brain): 12.8 ± 1.8 mL/cm^3
V T, Logan graphical analysis, Scan duration 90 min (H3Rs; Frontal cortex, monkey brain): 13.0 ± 2.0 mL/cm^3
V T, One-tissue compartment model, Scan duration 90 min (H3Rs; Frontal cortex, monkey brain): 13.4 ± 1.8 mL/cm^3
V T, Logan graphical analysis, Scan duration 60 min (H3Rs; Hippocampus, monkey brain): 13.0 ± 1.0 mL/cm^3
V T, Logan graphical analysis, Scan duration 70 min (H3Rs; Hippocampus, monkey brain): 13.2 ± 1.0 mL/cm^3
V T, Logan graphical analysis, Scan duration 80 min (H3Rs; Hippocampus, monkey brain): 13.6 ± 1.2 mL/cm^3
V T, Logan graphical analysis, Scan duration 90 min (H3Rs; Hippocampus, monkey brain): 13.9 ± 1.4 mL/cm^3
V T, One-tissue compartment model, Scan duration 90 min (H3Rs; Hippocampus, monkey brain): 13.9 ± 1.3 mL/cm^3
V T, Logan graphical analysis, Scan duration 60 min (H3Rs; Occipital cortex, monkey brain): 11.7 ± 1.6 mL/cm^3
V T, Logan graphical analysis, Scan duration 70 min (H3Rs; Occipital cortex, monkey brain): 11.8 ± 1.6 mL/cm^3
V T, Logan graphical analysis, Scan duration 80 min (H3Rs; Occipital cortex, monkey brain): 12.0 ± 1.8 mL/cm^3
V T, Logan graphical analysis, Scan duration 90 min (H3Rs; Occipital cortex, monkey brain): 12.1 ± 1.9 mL/cm^3
V T, One-tissue compartment model, Scan duration 90 min (H3Rs; Occipital cortex, monkey brain): 12.7 ± 2.0 mL/cm^3
V T, Logan graphical analysis, Scan duration 60 min (H3Rs; Pons-medulla, monkey brain): 8.5 ± 0.6 mL/cm^3
V T, Logan graphical analysis, Scan duration 70 min (H3Rs; Pons-medulla, monkey brain): 8.6 ± 0.7 mL/cm^3
V T, Logan graphical analysis, Scan duration 80 min (H3Rs; Pons-medulla, monkey brain): 8.8 ± 0.7 mL/cm^3
V T, Logan graphical analysis, Scan duration 90 min (H3Rs; Pons-medulla, monkey brain): 9.1 ± 0.9 mL/cm^3
V T, One-tissue compartment model, Scan duration 90 min (H3Rs; Pons-medulla, monkey brain): 8.8 ± 0.9 mL/cm^3
V T, Logan graphical analysis, Scan duration 60 min (H3Rs; Striatum, monkey brain): 21.2 ± 3.0 mL/cm^3
V T, Logan graphical analysis, Scan duration 70 min (H3Rs; Striatum, monkey brain): 21.5 ± 3.0 mL/cm^3
V T, Logan graphical analysis, Scan duration 80 min (H3Rs; Striatum, monkey brain): 21.9 ± 3.3 mL/cm^3
V T, Logan graphical analysis, Scan duration 90 min (H3Rs; Striatum, monkey brain): 22.6 ± 3.8 mL/cm^3
V T, One-tissue compartment model, Scan duration 90 min (H3Rs; Striatum, monkey brain): 23.2 ± 3.6 mL/cm^3
V T, Logan graphical analysis, Scan duration 60 min (H3Rs; Temporal cortex, monkey brain): 12.3 ± 1.6 mL/cm^3
V T, Logan graphical analysis, Scan duration 70 min (H3Rs; Temporal cortex, monkey brain): 12.4 ± 1.7 mL/cm^3
V T, Logan graphical analysis, Scan duration 80 min (H3Rs; Temporal cortex, monkey brain): 12.5 ± 1.8 mL/cm^3
V T, Logan graphical analysis, Scan duration 90 min (H3Rs; Temporal cortex, monkey brain): 12.9 ± 2.1 mL/cm^3
V T, One-tissue compartment model, Scan duration 90 min (H3Rs; Temporal cortex, monkey brain): 13.3 ± 2.1 mL/cm^3
V T, Logan graphical analysis, Scan duration 60 min (H3Rs; Thalamus, monkey brain): 15.1 ± 1.7 mL/cm^3
V T, Logan graphical analysis, Scan duration 70 min (H3Rs; Thalamus, monkey brain): 15.4 ± 1.9 mL/cm^3
V T, Logan graphical analysis, Scan duration 80 min (H3Rs; Thalamus, monkey brain): 15.6 ± 1.9 mL/cm^3
V T, Logan graphical analysis, Scan duration 90 min (H3Rs; Thalamus, monkey brain): 16.0 ± 2.1 mL/cm^3
V T, One-tissue compartment model, Scan duration 90 min (H3Rs; Thalamus, monkey brain): 16.1 ± 1.8 mL/cm^3
time of peak radioligand retention in the striatum (H3Rs; anesthetized monkeys): around 30 min
time of plasma radioactivity peak (H3Rs; anesthetized monkeys, arterial plasma): approximately 1 min
peak SUV in the striatum (H3Rs; anesthetized monkeys, mean ± S.D.): 5.0 ± 0.8
striatal VT (H3Rs; monkey): exceeded 20 mL/cm^3
change of VT values when scan endpoint changed between 90 and 60 min (H3Rs; monkey brain, Logan's graphical analysis, relative to values for 90 min): ≤ 7%
fraction of unmetabolized radioligand of total plasma radioactivity (H3Rs; monkey plasma at 90 min): 34%
Non-displaceable distribution volume (central H3Rs; Lassen's plot): 4.0 mL/cm^3
Compound: [11CH3]Oc1ccc(N2C(=O)CCc3cc(OC4CCN(C5CCC5)CC4)ccc32)cn1 [[^11C]TASP0410457]
share of total plasma radioactivity arising from the metabolite [1]: 13%
metabolite share of radioactivity in the brain [2]: approximately 50%
specific radioligand binding as share of the radioactivity in the striatum (central H3Rs): more than 80%
